Results from patent US20050096370A1, “Method for inhibiting tumor angiogenesis and tumor growth” (Bizbiotech Co., Ltd., priority 2003, published 2005).

What was measured:
VEGF = VEGF protein ELISA in Hep3B cell-conditioned medium; assay type: cell-based, human; conditions: Hep3B cells, hypoxic, 24 hours, versus untreated hypoxic cells (P<0.001)
Protocol: FIG. 3 is a histogram showing the amount of VEGF protein. […] The VEGF concentrations were quantified by comparison with a series of VEGF standard samples included in the assay kit. VEGF level in each experiment was measured twice. Bars represent the mean of four separate experiments with the 95% confidence interval. * denotes statistical significance compared to control supernatants from cells cultured under normoxic conditions (P<0.001); # denotes statistical significance compared to control supernatants from cells cultured under hypoxic conditions (P<0.00 1).
Immunoblotting was used to detect HIF-1 protein in cultured cells, as described (Chun et al., Biochem Pharmacol 2001 61:947-954). […] To quantify mRNAs for HIF-1α and HIF-1-regulated genes, we performed a highly sensitive, semi-quantitative reverse transcription-polymerase chain reaction (RT PCR), as described previously (Chun et al., J Cell Sci 2001 114:4051-4061). […] P-actin mRNA was measured as a PCR control. […] To assess whether the VEGF mRNA levels affected levels of VEGF protein secreted into the medium, we measured VEGF protein levels in Hep3B cell-conditioned medium. […] VEGF levels in the conditioned media were quantified by using the Quantikine human VEGF Immunoassay kit (R&D Systems, Minneapolis, Minn.) according to the manufacturer's recommended protocol. […]

Hep3B hepatoma = Hep3B hepatoma xenograft tumor growth in nude mice; assay type: in vivo; conditions: P<0.001 versus vehicle
Protocol: Male nude mice were injected subcutaneously in the flank with 5×10^6 viable Hep3B hepatoma (A), NCI-H87 gastric carcinoma (B), SiHa cervical carcinoma (C), SK-N-MC neuroblastoma (E), or Caki-I renal carcinoma (F) cells. […] Tumor size was measured over time. […] Differences between tumor sizes in the vehicle- and YC-1-treated groups for mice with Hep3B tumors were compared using ANOVA and Duncan's multiple range tests. * denotes P<0.001 relative to the control. Differences between tumor sizes in the vehicle and YC-1-treated groups for mice with other tumors (B-E) were compared using a Mann-Whitney U test. Each number beneath the error bar represents the P value of the difference relative to the control.
Male nude (BALB/cAnNC˜-nu/nu) mice were purchased from Charles River Japan Inc. (Shin-Yokohama, JAPAN). The animals were housed in a specific pathogen-free room under controlled temperature and humidity. All animal procedures were performed according to the established procedures of the Seoul National University Laboratory Animal Maintenance Manual. Eighty mice aged 7-8 weeks were injected with tumor cells for the xenograft experiments. […]
Tumors were measured every 2 or 3 days with calipers in two dimensions and the tumor volumes were calculated using the formula: Volume=axb2/2, where a is the width at the widest point of the tumor and h is the width perpendicular to a. […]

SMILES: OCc1ccc(-c2nn(Cc3ccccc3)c3ccccc23)o1 [YC-1, 3-(5′-hydroxymethyl-2′-furyl)-1-benzylindazole]
- VEGF protein level in medium (VEGF): decreased in a dose-dependent manner
- tumor volume, mean, last day of experiment (Hep3B hepatoma; YC-1 30 μg/g daily i.p. for 2 weeks after tumors established (100-150 mm^3)): 126 mm^3
- tumor volume, mean, last day of experiment (Hep3B hepatoma; YC-1 daily i.p. for 2 weeks, started the day after tumor cell injection): 422 mm³
